Assay results: patent US12509451B2, “Heteroaryl amide inhibitors of CD38” (NAPA THERAPEUTICS LTD., priority 2020, dated 2025)

Key:
[1] = biological target: T1, recombinant mouse CD38 Protein (Mus musculus, UniProt P56528); assay: Fluorescence-based NAD+ cyclase activity assay with mouse recombinant CD38 protein (Assay 4); assay type: biochemical; details: read-out: Assay 4 Arithmetic mean IC50
T1 construct: purchased R&D System
T1 sequence (P56528 1-304): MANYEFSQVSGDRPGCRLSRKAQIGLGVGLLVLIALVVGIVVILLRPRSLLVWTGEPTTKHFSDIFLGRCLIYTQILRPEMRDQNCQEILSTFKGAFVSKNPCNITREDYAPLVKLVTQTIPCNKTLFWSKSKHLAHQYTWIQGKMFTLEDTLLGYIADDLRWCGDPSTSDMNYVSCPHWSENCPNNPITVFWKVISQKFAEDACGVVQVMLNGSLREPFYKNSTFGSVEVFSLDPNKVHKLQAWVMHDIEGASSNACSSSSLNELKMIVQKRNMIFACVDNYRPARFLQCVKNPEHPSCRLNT
Method: This protocol was modified from de Oliveira et al. (2018) supra.
(§1) NAD+ cyclase activity of the human recombinant CD38 protein treated with test compounds was measured using a fluorescence-based assay. Briefly, recombinant mouse CD38 Protein (R&D System) was resuspended in 44 μl/well of Sucrose-Tris Buffer (Sucrose 0.25 M, Tris pH 7.4 40 mM) and plated in a 96-well black plate (CORNING) at a density of 32 ng/well.
(§2) Each test compound was received in a powder state and dissolved in DMSO as a 25 mM stock solution. Each test compound was serially diluted in order to generate a dose-response curve. The dilution series of each test compound in DMSO was prepared at 50 times the concentrations to be assayed. Each test compound was diluted to generate a 5-fold dilution series of 8 concentrations from 100 μM to 32 nM in order to assay 8 final concentrations ranging from 2 μM to 0.64 nM. One μl of the 50× concentration compound series was added to each well of the plate containing 125 ng of protein in Sucrose-Tris buffer.
Each plate had the following intra plate controls: 3 wells containing cells treated with vehicle only (DMSO), 3 wells of cells treated with the reference compounds 78c at a final concentration of 500 nM and 2 wells containing only Sucrose-Tris buffer (used as a background value).
The reaction was started adding nicotinamide guanine dinucleotide (NGD+) (Sigma Aldrich) to reach a final concentration of 150 µM. The samples were excited at 337-15 nm and the emission of fluorescence was measured at 442-20 nm at 37° C. every minute for 1 hr in a Clariostar® microplate reader (BMG LABTECH). NAD+ cyclase activity was calculated as the slope of the linear portion of the fluorescence-time curve using the MARS data analysis software (BMG LABTECH). The data were uploaded in the Collaborative Drug Design (CDD) Software and for each compound the IC50 was calculated by the software. Each compound was tested in 3 independent experiments on 3 separate days to establish the reproducibility of the results. For each plate, the z-factor was also calculated as a plate quality using the CDD software.

[2] = biological target: T1, recombinant mouse CD38 Protein; assay: Fluorescence-based NAD+ hydrolase activity assay with mouse recombinant CD38 protein (Assay 5); assay type: biochemical; details: read-out: Assay 5 Arithmetic mean IC50
Method: This protocol was modified from the following references: Muller et al. (1983); Schultz et al. (2018); Matalonga et al. (2017); and de Oliveira et al. (2018), supra.
as §1, with “hydrolase” for “cyclase”, “mouse” for “human”, “96 well” for “96-well”, “2.5” for “32”
as §2, with “20” for “100”, “0.256” for “32”, “400 nM” for “2 μM”, “25.6 pM.” for “0.64 nM.”, “2.5” for “125”
Each plate had the following intra plate controls: 3 wells containing cells treated with vehicle only (DMSO), 3 wells of cells treated with the reference compounds 78c at a final concentration of 50 nM and 2 wells containing only Sucrose-Tris buffer (used as a background value).
The reaction was started adding nicotinamide 1,N^6-etheno-adenine dinucleotide (Sigma Aldrich) to reach a final concentration of 80 µM. The samples were excited at 321-15 nm and the emission of fluorescence was measured at 410-20 nm at 37° C. every minute for 1 hr in a Clariostar Microplate® reader (BMG LABTECH). NAD+ hydrolase activity was calculated as the slope of the linear portion of the fluorescence-time curve using the MARS data analysis software (BMG LABTECH). The data were uploaded in the Collaborative Drug Design (CDD) Software and for each compound the IC50 was calculated by the software. Each compound was tested in 3 independent experiments on 3 separate days to establish the reproducibility of the results. For each plate, the z-factor was also calculated as a plate quality using the CDD software.

IC50 [1]: 51 to 1000 nM
IC50 [2]: 1 to 50 nM
SMILES: CC1(Oc2cc(C(=O)Nc3ccnc(C(F)(F)F)c3)nc(-n3ccnc3)n2)COC1 [Compound 41]
